These results are taken from US4697012A, “Morpholino pyridyl thiazole compound” (Merck & Co., Inc., priority 1984, dated 1987).

Structures can show the parent of a compound that is named as a salt.

This test has as its system footpad swelling (SRBC challenge). In words: Delayed Hypersensitivity Assay (SRBC-sensitized mice, footpad swelling). Particulars: Mus musculus, one hour prior to challenge, 24 hrs post challenge, read-out: Inhibition % (percent inhibition of footpad swelling); for inhibition in vivo at 0.1 mg/kg: dosage 0.1 mg/kg p.o.; for inhibition in vivo at 1 mg/kg: dosage 1.0 mg/kg p.o.; for inhibition in vivo at 10 mg/kg: dosage 10.0 mg/kg p.o.; for inhibition in vivo at 10000 µg/mL / inhibition in vivo at 10 µg/mL / inhibition in vivo at 100 µg/mL / inhibition in vivo at 100000 µg/mL: Table II; for inhibition in vivo at 10000 µg/mL: dosage 10.0 (mg/ml as printed) p.o.; for inhibition in vivo at 10 µg/mL: dosage 0.01 (mg/ml as printed) p.o.; for inhibition in vivo at 100 µg/mL: dosage 0.1 (mg/ml as printed) p.o.; for inhibition in vivo at 100000 µg/mL: dosage 100.0 (mg/ml as printed) p.o.; for inhibition in vivo at 0.01 mg/kg: dosage 0.01 mg/kg p.o.; for inhibition in vivo at 100 mg/kg: dosage 100.0 mg/kg p.o. It counts as in vivo, female BALB/C mice. As for the experimental part: Animals (female BALB/C mice) are sensitized with 5×10^5 SRBC(sheep red blood cells)/0.5 ml by intravenous (tail vein) injection. One hour prior to challenge, animals are dosed with the drugs in question, p.o. On day four the animals are challenged with 5×10^8 SRBC/0.05 ml in the hind foot pad. Footpad volume is measured by a mercury displacement apparatus before challenge and 24 hrs post challenge. Percent inhibition of footpad swelling is calculated by comparing the increase in footpad volume of test group to the control group.

As to `OCC(c1ccccc1)c1nc(-c2ccncc2)cs1` (stereo not drawn) [CH2 OH, 2-Phenyl-2-[4-(4-pyridyl)-2-thiazolyl] ethanol], for the setting “po, Table I”, the inhibition in vivo at 0.1 mg/kg came to 51%, the inhibition in vivo at 1 mg/kg turned out to be 65% and the inhibition in vivo at 10 mg/kg worked out at 27%.

Regarding `O=CC(c1ccccc1)c1nc(-c2ccncc2)cs1` (stereo not drawn) [CHO], the inhibition in vivo at 10 mg/kg (po, Table I) is 63%.

`N#CC(c1ccccc1)c1nc(-c2ccncc2)cs1` (stereo not drawn) [CN, 2-Phenyl-2-[4-(4-pyridyl)-2-thiazolyl]acetonitrile]: for the setting “po, Table I”, the inhibition in vivo at 0.1 mg/kg worked out at 58% and the inhibition in vivo at 1 mg/kg stood at 46%.

In the case of `N#Cc1cc(-c2csc(Cc3ccccc3)n2)ccn1` [Example 2-CN], the inhibition in vivo at 10000 µg/mL worked out at 36.6%.

On to `Clc1cc(-c2csc(Cc3ccccc3)n2)ccn1` [Example 2-Cl, 2-Benzyl-4-(2-chloro-4-pyridyl)thiazole], for which the inhibition in vivo at 10 µg/mL was 52.6%, the inhibition in vivo at 100 µg/mL turned out to be 64.7%, the inhibition in vivo at 10000 µg/mL is 77.6% and the inhibition in vivo at 100000 µg/mL stood at 80.1%.

`c1ccc(Cc2nc(-c3ccnc(N4CCOCC4)c3)cs2)cc1` [Example 2-morpholino]: the inhibition in vivo at 10 µg/mL came out at 26.1%, the inhibition in vivo at 100 µg/mL amounted to 33.8%, the inhibition in vivo at 10000 µg/mL amounted to 44.3% and the inhibition in vivo at 100000 µg/mL amounted to 45.1%.

`FC(F)(c1ccccc1)c1nc(-c2ccncc2)cs1` [F,F, 1,1-Difluoro-1-phenyl-1-[4-(4-pyridyl)-2-thiazolyl]-methane]: for the setting “po, Table I”, the inhibition in vivo at 1 mg/kg worked out at 49% and the inhibition in vivo at 10 mg/kg was 63%.

`c1ccc(Cc2nc(-c3ccncc3)cs2)cc1` [H, 2-Benzyl-4-(4-pyridyl)thiazole]: under “po, Table I”, the inhibition in vivo at 0.01 mg/kg was 21.8% and the inhibition in vivo at 0.1 mg/kg turned out to be 70.2%. Moreover, the inhibition in vivo at 30 mg/kg (po, Table I, dosage 30 mg/kg p.o.) came to 75.2%.

Take `[O-][n+]1ccc(-c2csc(Cc3ccccc3)n2)cc1` [Noxide, 4-[2-(Phenylmethyl)-4-thiazolyl]pyridine-1-oxide]: the inhibition in vivo at 10 µg/mL was determined as 46%, the inhibition in vivo at 100 µg/mL was found to be 55.6%, the inhibition in vivo at 10000 µg/mL is 71.8% and the inhibition in vivo at 100000 µg/mL came out at 93.4%.

As for `OC(c1ccccc1)c1nc(-c2ccncc2)cs1` (stereo not drawn) [OH, 1-Phenyl-1-[4-(4-pyridyl)-2-thiazolyl]methanol], for the setting “po, Table I”, the inhibition in vivo at 0.1 mg/kg turned out to be 32%, the inhibition in vivo at 1 mg/kg was found to be 31% and the inhibition in vivo at 10 mg/kg was found to be 55%.

Take `Fc1ccc(Cc2nc(-c3ccncc3)cs2)cc1` [PF, 2-(p-fluoro-benzyl)-4-(4-pyridyl)thiazole]: for the setting “po, Table I”, the inhibition in vivo at 0.1 mg/kg turned out to be 11.7%, the inhibition in vivo at 1 mg/kg was 60.8% and the inhibition in vivo at 10 mg/kg was determined as 40.9%.

As for `Cc1cccc(Cc2nc(-c3ccncc3)cs2)c1` [m-CH3, 2-(m-methyl-benzyl)-4-(4-pyridyl)thiazole dihydrochloride], under “po, Table I”, the inhibition in vivo at 0.1 mg/kg was found to be 49.1%, the inhibition in vivo at 10 mg/kg was 64.8% and the inhibition in vivo at 100 mg/kg amounted to 71.2%.

In the case of `Nc1ccccc1Cc1nc(-c2ccncc2)cs1` [o-NH2, 2-(o-Aminobenzyl)-4-(4-pyridyl)thiazole], where the note is “po, Table I”, the inhibition in vivo at 0.01 mg/kg was 82.2%, the inhibition in vivo at 0.1 mg/kg is 93.6% and the inhibition in vivo at 10 mg/kg is 52.8%.

As for `CC(=O)Nc1ccccc1Cc1nc(-c2ccncc2)cs1` [o-NHCOCH3, 2-(o-acetamidobenzyl)-4-(4-pyridyl)thiazole], under “po, Table I”, the inhibition in vivo at 0.1 mg/kg was determined as 32.6%, the inhibition in vivo at 10 mg/kg came out at 52.8% and the inhibition in vivo at 100 mg/kg turned out to be 75.5%.

Regarding `NC(=O)Nc1ccccc1Cc1nc(-c2ccncc2)cs1` [o-NHCONH2], under “po, Table I”, the inhibition in vivo at 0.01 mg/kg stood at 40.4% and the inhibition in vivo at 10 mg/kg was 31.4%.

Turning to `Oc1ccccc1Cc1nc(-c2ccncc2)cs1` [o-OH], under “po, Table I”, the inhibition in vivo at 0.01 mg/kg was 15.1% and the inhibition in vivo at 0.1 mg/kg is 16.4%.

`c1ccc(-c2ccc(Cc3nc(-c4ccncc4)cs3)cc2)cc1` [p-C6 H5]: where the note is “po, Table I”, the inhibition in vivo at 10 mg/kg stood at 36.4%.

In the case of `O=[N+]([O-])c1ccc(Cc2nc(-c3ccncc3)cs2)cc1` [p-NO2, 2-(p-Nitrobenzyl)-4-(4-pyridyl)thiazole], under “po, Table I”, the inhibition in vivo at 0.01 mg/kg was 32.4%, the inhibition in vivo at 0.1 mg/kg was 40.6%, the inhibition in vivo at 10 mg/kg came out at 65.2% and the inhibition in vivo at 100 mg/kg is 82.2%.
